Data published in the kinase profiling compilation of Christmann-Franck et al. (2016).

Columns and labels:
Assay in all cases: KINOMEscan competition binding
Details in all cases: compound 10.0 µM
ABL1 (human) = ABL1 (human) (UniProt P00519)
[1] = test system: ABL1 (human), P00519 [Q252H]
[2] = test system: ABL1 (human), P00519 [T315I]
MAP3K1 (human) = MAP3K1 (human) (UniProt Q13233)
STK38 (human) = STK38 (human) (UniProt Q15208)
BUB1 (human) = BUB1 (human) (UniProt O43683)
GSG2 (human) = GSG2 (human) (UniProt Q8TF76)
Chain of GSG2 (human) (Q8TF76 whole entry, looked up): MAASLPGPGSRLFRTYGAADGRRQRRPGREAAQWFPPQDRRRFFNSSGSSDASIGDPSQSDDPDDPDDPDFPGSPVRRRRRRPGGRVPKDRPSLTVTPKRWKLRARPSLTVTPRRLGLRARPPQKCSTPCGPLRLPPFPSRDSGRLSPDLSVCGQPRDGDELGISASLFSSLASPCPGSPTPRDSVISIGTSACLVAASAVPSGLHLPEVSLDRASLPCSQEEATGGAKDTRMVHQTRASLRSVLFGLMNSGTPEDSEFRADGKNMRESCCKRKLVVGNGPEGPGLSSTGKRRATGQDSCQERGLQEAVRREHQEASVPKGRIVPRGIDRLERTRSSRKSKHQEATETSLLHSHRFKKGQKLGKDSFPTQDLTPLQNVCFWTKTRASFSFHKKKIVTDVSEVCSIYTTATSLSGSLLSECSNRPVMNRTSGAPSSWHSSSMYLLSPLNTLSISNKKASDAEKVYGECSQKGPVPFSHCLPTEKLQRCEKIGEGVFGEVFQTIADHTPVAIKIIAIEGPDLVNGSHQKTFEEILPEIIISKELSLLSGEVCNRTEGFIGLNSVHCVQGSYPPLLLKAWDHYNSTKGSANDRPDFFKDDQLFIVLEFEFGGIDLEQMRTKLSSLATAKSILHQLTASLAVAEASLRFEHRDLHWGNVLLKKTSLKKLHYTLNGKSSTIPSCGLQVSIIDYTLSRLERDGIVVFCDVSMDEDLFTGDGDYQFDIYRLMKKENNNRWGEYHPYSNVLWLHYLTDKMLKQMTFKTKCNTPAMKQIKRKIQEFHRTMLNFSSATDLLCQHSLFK

RPS6KA3 KD2 (human) = RPS6KA3 KD2 (human) (UniProt P51812)
Chain of RPS6KA3 KD2 (human) (P51812 whole entry, looked up): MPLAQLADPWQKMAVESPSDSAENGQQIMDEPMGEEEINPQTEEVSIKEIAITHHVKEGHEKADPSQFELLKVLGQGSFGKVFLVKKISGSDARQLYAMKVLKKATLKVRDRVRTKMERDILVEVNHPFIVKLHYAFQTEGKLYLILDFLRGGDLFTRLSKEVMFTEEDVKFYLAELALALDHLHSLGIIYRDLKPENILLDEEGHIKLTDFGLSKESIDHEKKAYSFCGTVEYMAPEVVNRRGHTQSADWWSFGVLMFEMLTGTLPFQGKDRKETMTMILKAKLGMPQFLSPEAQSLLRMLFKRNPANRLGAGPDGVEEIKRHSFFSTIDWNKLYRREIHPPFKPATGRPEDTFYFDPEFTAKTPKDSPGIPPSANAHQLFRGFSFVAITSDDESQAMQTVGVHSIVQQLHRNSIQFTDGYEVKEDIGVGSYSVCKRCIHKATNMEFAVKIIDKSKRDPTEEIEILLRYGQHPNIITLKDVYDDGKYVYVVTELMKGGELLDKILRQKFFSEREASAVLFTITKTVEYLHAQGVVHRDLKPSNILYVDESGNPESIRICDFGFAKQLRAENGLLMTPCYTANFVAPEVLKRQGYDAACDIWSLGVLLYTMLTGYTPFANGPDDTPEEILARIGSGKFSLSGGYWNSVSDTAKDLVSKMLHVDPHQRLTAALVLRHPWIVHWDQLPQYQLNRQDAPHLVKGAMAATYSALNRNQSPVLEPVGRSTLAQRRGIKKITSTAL

SGK1 (human) = SGK1 (human) (UniProt O00141)
Chain of SGK1 (human) (O00141 whole entry, looked up): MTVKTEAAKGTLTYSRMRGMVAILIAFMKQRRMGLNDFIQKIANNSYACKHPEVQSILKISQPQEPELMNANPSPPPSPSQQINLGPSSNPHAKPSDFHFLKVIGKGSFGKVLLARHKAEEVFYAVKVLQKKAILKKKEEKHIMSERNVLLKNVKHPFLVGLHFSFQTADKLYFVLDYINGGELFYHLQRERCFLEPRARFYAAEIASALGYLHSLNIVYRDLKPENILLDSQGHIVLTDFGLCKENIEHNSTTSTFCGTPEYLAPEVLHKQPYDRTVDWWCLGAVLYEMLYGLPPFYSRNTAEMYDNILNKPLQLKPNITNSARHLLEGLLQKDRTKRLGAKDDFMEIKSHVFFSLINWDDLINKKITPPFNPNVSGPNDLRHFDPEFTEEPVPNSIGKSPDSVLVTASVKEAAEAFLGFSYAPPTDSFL

WNK1 (human) = WNK1 (human) (UniProt Q9H4A3)
WNK3 (human) = WNK3 (human) (UniProt Q9BYP7)

Chain of STK38 (human) (Q15208 whole entry, looked up): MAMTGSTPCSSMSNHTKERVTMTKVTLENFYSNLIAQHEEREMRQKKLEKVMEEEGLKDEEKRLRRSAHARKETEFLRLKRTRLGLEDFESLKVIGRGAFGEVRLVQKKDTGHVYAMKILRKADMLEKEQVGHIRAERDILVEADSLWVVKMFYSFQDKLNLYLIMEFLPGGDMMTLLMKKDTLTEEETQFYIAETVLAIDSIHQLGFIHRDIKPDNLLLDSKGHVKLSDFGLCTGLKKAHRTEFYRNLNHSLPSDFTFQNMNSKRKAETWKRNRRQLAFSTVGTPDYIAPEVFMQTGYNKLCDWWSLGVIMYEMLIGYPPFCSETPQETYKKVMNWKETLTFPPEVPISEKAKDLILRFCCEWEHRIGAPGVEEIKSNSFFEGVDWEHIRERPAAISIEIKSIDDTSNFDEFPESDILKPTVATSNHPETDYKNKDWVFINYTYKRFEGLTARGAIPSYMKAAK
Chain of MAP3K1 (human) (Q13233 whole entry, looked up): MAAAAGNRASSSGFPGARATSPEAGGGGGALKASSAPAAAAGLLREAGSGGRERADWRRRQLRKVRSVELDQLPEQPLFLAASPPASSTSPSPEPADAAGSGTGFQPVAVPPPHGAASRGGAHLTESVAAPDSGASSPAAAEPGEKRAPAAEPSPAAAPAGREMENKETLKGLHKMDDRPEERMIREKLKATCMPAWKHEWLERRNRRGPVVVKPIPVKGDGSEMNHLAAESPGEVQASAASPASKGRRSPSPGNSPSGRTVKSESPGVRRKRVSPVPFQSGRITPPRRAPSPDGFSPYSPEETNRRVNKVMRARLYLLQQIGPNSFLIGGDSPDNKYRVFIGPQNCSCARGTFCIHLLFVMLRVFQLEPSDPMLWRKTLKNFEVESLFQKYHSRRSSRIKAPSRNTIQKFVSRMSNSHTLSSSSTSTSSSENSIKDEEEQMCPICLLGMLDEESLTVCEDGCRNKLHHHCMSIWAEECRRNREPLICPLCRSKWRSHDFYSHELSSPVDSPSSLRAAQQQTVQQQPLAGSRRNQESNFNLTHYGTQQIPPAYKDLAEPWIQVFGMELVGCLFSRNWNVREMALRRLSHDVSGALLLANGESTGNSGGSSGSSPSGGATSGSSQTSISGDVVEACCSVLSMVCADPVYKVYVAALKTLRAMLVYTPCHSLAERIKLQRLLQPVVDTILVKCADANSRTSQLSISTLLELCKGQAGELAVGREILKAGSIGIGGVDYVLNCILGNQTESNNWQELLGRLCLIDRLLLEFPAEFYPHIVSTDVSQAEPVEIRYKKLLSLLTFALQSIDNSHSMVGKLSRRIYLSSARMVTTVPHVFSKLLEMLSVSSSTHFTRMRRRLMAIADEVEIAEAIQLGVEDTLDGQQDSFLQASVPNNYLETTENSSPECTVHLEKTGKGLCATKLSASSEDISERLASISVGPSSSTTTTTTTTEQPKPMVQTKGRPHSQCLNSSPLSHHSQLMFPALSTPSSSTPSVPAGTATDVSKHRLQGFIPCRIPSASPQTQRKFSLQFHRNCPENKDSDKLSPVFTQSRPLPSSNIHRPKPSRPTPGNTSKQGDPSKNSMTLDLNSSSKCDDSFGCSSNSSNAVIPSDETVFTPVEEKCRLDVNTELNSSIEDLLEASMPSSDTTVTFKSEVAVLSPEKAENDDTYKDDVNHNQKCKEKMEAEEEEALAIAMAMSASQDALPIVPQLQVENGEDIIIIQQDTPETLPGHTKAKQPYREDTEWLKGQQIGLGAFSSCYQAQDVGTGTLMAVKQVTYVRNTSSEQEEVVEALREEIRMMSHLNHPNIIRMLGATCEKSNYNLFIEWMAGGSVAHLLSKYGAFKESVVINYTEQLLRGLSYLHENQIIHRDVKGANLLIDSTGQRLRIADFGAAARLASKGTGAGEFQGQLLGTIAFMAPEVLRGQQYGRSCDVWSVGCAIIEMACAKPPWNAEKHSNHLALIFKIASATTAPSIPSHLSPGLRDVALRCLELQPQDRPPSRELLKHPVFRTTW
Chain of BUB1 (human) (O43683 whole entry, looked up): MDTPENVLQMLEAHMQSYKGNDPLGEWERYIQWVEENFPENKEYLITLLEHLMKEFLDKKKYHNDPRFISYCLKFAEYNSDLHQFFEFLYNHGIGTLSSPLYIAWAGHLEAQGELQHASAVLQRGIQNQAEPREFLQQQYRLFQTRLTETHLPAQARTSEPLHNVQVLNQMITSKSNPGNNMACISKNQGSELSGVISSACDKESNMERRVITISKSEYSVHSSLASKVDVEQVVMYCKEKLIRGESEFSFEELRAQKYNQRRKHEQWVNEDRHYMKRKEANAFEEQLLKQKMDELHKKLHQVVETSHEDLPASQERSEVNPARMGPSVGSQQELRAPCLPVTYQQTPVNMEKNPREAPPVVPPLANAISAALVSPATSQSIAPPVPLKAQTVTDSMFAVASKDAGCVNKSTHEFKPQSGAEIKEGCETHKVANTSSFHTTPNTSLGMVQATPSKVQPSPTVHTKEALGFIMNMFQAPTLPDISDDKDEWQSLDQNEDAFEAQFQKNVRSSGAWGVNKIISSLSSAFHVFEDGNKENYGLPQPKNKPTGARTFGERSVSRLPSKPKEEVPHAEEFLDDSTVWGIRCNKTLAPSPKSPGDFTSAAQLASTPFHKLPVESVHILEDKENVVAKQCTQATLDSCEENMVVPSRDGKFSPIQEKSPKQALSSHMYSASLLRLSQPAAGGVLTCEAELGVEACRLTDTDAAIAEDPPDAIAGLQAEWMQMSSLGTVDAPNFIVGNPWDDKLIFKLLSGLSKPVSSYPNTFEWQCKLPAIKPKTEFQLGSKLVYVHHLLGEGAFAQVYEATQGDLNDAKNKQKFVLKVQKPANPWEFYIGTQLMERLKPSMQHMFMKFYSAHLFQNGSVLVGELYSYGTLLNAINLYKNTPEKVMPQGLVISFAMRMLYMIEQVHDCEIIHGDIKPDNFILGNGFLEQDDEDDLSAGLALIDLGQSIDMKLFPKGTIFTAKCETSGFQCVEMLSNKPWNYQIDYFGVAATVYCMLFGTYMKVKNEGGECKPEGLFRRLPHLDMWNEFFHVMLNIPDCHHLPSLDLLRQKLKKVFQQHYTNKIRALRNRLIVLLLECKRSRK

SMILES	kinase still bound, per cent of control (ABL1 (human)) [%]	kinase still bound, per cent of control [1] [%]	kinase still bound, per cent of control [2] [%]	kinase still bound, per cent of control (MAP3K1 (human)) [%]	kinase still bound, per cent of control (STK38 (human)) [%]	other results
COc1cc(C(=O)NC2CCN(C)CC2)ccc1Nc1ncc2c(n1)N(C1CCCC1)CCC(=O)N2C(C)C	100	100	100	100	100	–
C=CC(=O)Nc1cccc(Nc2nc(N[C@H]3CC[C@H](N(C)C)CC3)nc3c2ncn3C(C)C)c1	–	–	–	100	19	–
N#Cc1c(NC(=O)c2cccc3ccccc23)sc2c1CCCC2	–	–	–	59	100	kinase still bound, per cent of control (BUB1 (human)): 100%; kinase still bound, per cent of control (GSG2 (human)): 100%; kinase still bound, per cent of control (RPS6KA3 KD2 (human)): 100%; kinase still bound, per cent of control (SGK1 (human)): 100%; kinase still bound, per cent of control (WNK1 (human)): 89%; kinase still bound, per cent of control (WNK3 (human)): 100%
Cc1ccc(NC(=O)c2cccc(C(C)(C)C#N)c2)cc1Nc1ccc2ncn(C)c(=O)c2c1	–	–	–	76	100	–
CC[C@@H]1C(=O)N(C)c2cnc(Nc3ccc(C(=O)NC4CCN(C)CC4)cc3OC)nc2N1C1CCCC1	100	100	100	–	–	–
CCOc1cc2ncc(C#N)c(Nc3ccc(OCc4ccccn4)c(Cl)c3)c2cc1NC(=O)/C=C/CN(C)C	100	71	–	96	81	–
COc1cc(N2CCN(C)CC2)ccc1Nc1nc(N)c(C(=O)c2c(Cl)cccc2Cl)s1	–	–	–	100	100	–
C[C@@H](Oc1cc(-n2cnc3ccc(CN4CCN(C)CC4)cc32)sc1C(N)=O)c1ccccc1C(F)(F)F	–	–	–	3.7	71	–
O=C(NC1CC1)c1cccc(-c2ccc3c(NC(=O)C4CC4)n[nH]c3c2)c1	–	–	–	100	85	–
C=CC(=O)Nc1cc(NC(=O)c2ccc(C)c(NC(=O)c3ccno3)c2)cc(C(F)(F)F)c1	–	–	–	94	90	–
O=C1Nc2ccc(I)cc2/C1=C/c1cc(Br)c(O)c(Br)c1	–	–	–	84	64	–
CN(C)C/C=C/C(=O)Nc1cccc(Nc2ncc3c(n2)N(C)c2ccccc2C(=O)N3C)c1	–	–	–	72	74	–
COc1cc(C(=O)NC2CCN(C)CC2)ccc1Nc1ncc2c(n1)N(C1CCCC1)C(C)CC(=O)N2C (stereo not given)	100	100	100	–	–	–
Cc1ccc2nc(NCCN)c3ncc(C)n3c2c1	–	–	100	74	–	–
O=C(NOC[C@H](O)CO)c1ccc(F)c(F)c1Nc1ccc(I)cc1F	–	–	–	54	100	kinase still bound, per cent of control (BUB1 (human)): 100%; kinase still bound, per cent of control (GSG2 (human)): 100%; kinase still bound, per cent of control (RPS6KA3 KD2 (human)): 100%; kinase still bound, per cent of control (SGK1 (human)): 100%; kinase still bound, per cent of control (WNK1 (human)): 92%; kinase still bound, per cent of control (WNK3 (human)): 100%
CCC(=O)N1CCN(c2ccc(-n3c(=O)ccc4cnc5ccc(-c6cnc7ccccc7c6)cc5c43)cc2C(F)(F)F)CC1	60	–	–	92	100	–
Nc1ccc(-c2ccc3ncc4ccc(=O)n(-c5cccc(C(F)(F)F)c5)c4c3c2)cn1	–	–	–	100	100	–
Cc1cc([C@@H](C)Nc2ccccc2C(=O)O)c2nc(N3CCOCC3)cc(=O)n2c1	–	–	–	90	100	–
O=C(O)c1ccc(Nc2ncc3c(n2)-c2ccc(Cl)cc2C(c2c(F)cccc2F)=NC3)cc1	–	–	–	100	100	–
CCCS(=O)(=O)Nc1ccc(F)c(C(=O)c2c[nH]c3ncc(-c4ccc(Cl)cc4)cc23)c1F	57	–	79	91	100	–
OCCCNc1cc(-c2ccnc(Nc3cccc(Cl)c3)n2)ccn1	100	100	100	100	100	–
Cc1ccc(C(=O)Nc2cccc(C(F)(F)F)c2)cc1Nc1cncc(C(N)=O)c1	100	100	100	–	–	–
CCN1CCN(Cc2ccc(Nc3ncc4c(n3)N(C)c3ccccc3C(=O)N4C)cc2C(F)(F)F)CC1	–	–	–	55	95	–
Cn1c(=O)n(-c2ccc(C(C)(C)C#N)cc2)c2c3cc(-c4cnc5ccccc5c4)ccc3ncc21	100	100	100	100	100	–
C=CC(=O)Nc1cccc(Oc2nc(Nc3ccc(N4CCN(C)CC4)cc3OC)ncc2Cl)c1	100	100	100	–	–	–
